Measured values: patent publication US20150273025A1, “APYRASE TREATMENTS” (THE REGENTS OF THE UNIVERSITY OF MICHIGAN, priority 2012, published 2015)
Where a SMILES comes first, the peptide text is derived from it. Bridges are numbered along the chain shown (N, C = ends). [ ]: non-standard residue; d: D form. The star is where a group is joined. Heptanoyl(5-Me) = CCC(C)CCCC(=O)*; Dab = NCC[C@H](N)C(=O)O

How the values were obtained:
[1] = test system: Burkholderia cepacia GIIIb AU0062; test: Viable cell count (CFU) with colistin and apyrase; settings: apyrase 2 U/ml; colistin at less than 20 μg/ml
Method: Burkholderia cepacia GIIIb AU0062 was grown in the presence of combinations of 0 and 2 U/ml of apyrase and approximately 0 to 20 μg/ml of colistin. After incubation, the numbers of viable cells were determined by counting the colony forming units (CFU) on the plate (data provided as CFU/ml).

[2] = test system: P. aeruginosa strain AU1292; test: Viable cell count (CFU) with colistin and apyrase; settings: apyrase 2 U/ml; colistin at less than 20 μg/ml
Method: P. aeruginosa strain AU1292 was grown in the presence of combinations of 0 and 2 U/ml of apyrase and approximately 0 to 20 μg/ml of colistin. After incubation, the numbers of viable cells were determined by counting the colony forming units (CFU) on the plate (data provided as CFU/ml).

[3] = test system: P. aeruginosa strain AU8104; test: Viable cell count (CFU) with colistin and apyrase; settings: apyrase 2 U/ml; colistin at less than 10 μg/ml
Method: P. aeruginosa strain AU8104 was grown in the presence of combinations of 0 and 2 U/ml of apyrase and approximately 0 to 20 μg/ml of colistin. After incubation, the numbers of viable cells were determined by counting the colony forming units (CFU) on the plate (data provided as CFU/ml).

[4] = test system: Burkholderia cepacia GIIIb AU0055; test: Viable cell count (CFU) with colistin and apyrase; settings: apyrase 2 U/ml; colistin at less than 10 μg/ml
Method: Burkholderia cepacia GIIIb AU0055 was grown in the presence of combinations of 0 and 2 U/ml of apyrase and approximately 0 to 20 μg/ml of colistin. After incubation, the numbers of viable cells were determined by counting the colony forming units (CFU) on the plate (data provided as CFU/ml).

[5] = test system: Burkholderia cepacia GIIIa AU0019; test: Viable cell count (CFU) with colistin and apyrase; type: cell-based; settings: apyrase 2 U/ml; colistin at less than 10 μg/ml
S. aureus ATCC 25923 = test: MIC from dose-kill curves, colistin alone or with apyrase; type: cell-based; settings: 4 hours at 37° C., apyrase 2 U/ml in the combination
Method: (§1) Data were collected from systematic tests to investigate bacterial killing with colistin and apyrase combinations against ESKAPE bacteria in vitro. […] Dose-kill curves for 22 strains (colistin sensitive or resistant ˜10^6 CFU/ml) were generated after exposure to colistin at different concentrations by itself or in combination with apyrase (2 U/ml) for 4 hours at 37° C. Data were obtained from three independent experiments. […] The MIC of colistin and apyrase combinations was generally 2- to 8-fold lower in comparison to the MIC for colistin alone (FIG. 31 and Table 2). For Gram-positive strains, the MICs results obtained with colistin alone and with the combination of colistin and apyrase were very similar.

A. baumannii AC285 = test: as above; type: cell-based; settings: 4 hours at 37° C., apyrase 2 U/ml in the combination
Method: as §1

P. aeruginosa AU7443 = test: as above; type: cell-based; settings: 4 hours at 37° C., apyrase 2 U/ml in the combination
Method: as §1

P. aeruginosa PAO300 = test: as above; type: cell-based; settings: 4 hours at 37° C., apyrase 2 U/ml in the combination
Method: as §1

A. baumannii DMC1 [6] = test: as above; type: cell-based; settings: 4 hours at 37° C., apyrase 2 U/ml in the combination
Method: as §1

E. coli K-12 = test: as above; type: cell-based; settings: 4 hours at 37° C., apyrase 2 U/ml in the combination
Method: as §1

A. baumannii VBA9 = test: as above; type: cell-based; settings: 4 hours at 37° C., apyrase 2 U/ml in the combination
Method: as §1

B. multivorans AU0801 = test: as above; type: cell-based; settings: 4 hours at 37° C., apyrase 2 U/ml in the combination
Method: as §1

K. pneumonia AD = test: as above; type: cell-based; settings: 4 hours at 37° C., apyrase 2 U/ml in the combination
Method: as §1

A. baumannii ATCC 19606 = test: as above; type: cell-based; settings: 4 hours at 37° C., apyrase 2 U/ml in the combination
Method: as §1

A. baumannii AC121 = test: as above; type: cell-based; settings: 4 hours at 37° C., apyrase 2 U/ml in the combination
Method: as §1

P. aeruginosa ATCC 27853 = test: as above; type: cell-based; settings: 4 hours at 37° C., apyrase 2 U/ml in the combination
Method: as §1

P. aeruginosa AU1292 = test: as above; type: cell-based; settings: 4 hours at 37° C., apyrase 2 U/ml in the combination
Method: as §1

[7] = test system: Burkholderia ambifaria AU5203; test: Viable cell count (CFU) with colistin and apyrase; settings: apyrase 2 U/ml; colistin at less than 20 μg/ml
Method: Burkholderia ambifaria AU5203 was grown in the presence of combinations of 0 and 2 U/ml of apyrase and approximately 0 to 20 μg/ml of colistin. After incubation, the numbers of viable cells were determined by counting the colony forming units (CFU) on the plate (data provided as CFU/ml).

[8] = test system: P. aeruginosa strain AU7443, mucoid; test: Viable cell count (CFU) with colistin and apyrase; settings: apyrase 2 U/ml; colistin at less than 20 μg/ml
Method: After incubation, the numbers of viable cells were determined by counting the colony forming units (CFU) on the plate (data provided as CFU/ml).

[9] = test system: A. baumannii strain AC121; test: Viable cell count (CFU) with colistin and apyrase; settings: apyrase 2 U/ml; colistin at less than 20 μg/ml; colistin-resistant strain
Method: Approximately 10^5 to 10^6 CFU/ml of the colistin-resistant A. baumannii strain AC121 was grown in the presence of combinations of 0 and 2 U/ml of apyrase and approximately 0 to 20 μg/ml of colistin. After incubation, the numbers of viable cells were determined by counting the colony forming units (CFU) on the plate (data provided as CFU/ml).

A. baumannii ATCC DMC1 = test: Mouse burn wound infection model, treatment 24 hours after inoculation; settings: treated 24 hours after inoculation, sampled 48 hours after the burn
Method: After a burn, A. baumannii ATCC DMC1 was inoculated on skin. After 24 hours, the wounds were treated with apyrase alone, colistin alone, or apyrase and colistin in combination. Skin samples were collected after another 24 hours and the CFU/g skin of A. baumannii ATCC DMC1 was determined.

[10] = test system: Burkholderia multivorans AU0801; test: Viable cell count (CFU) with colistin and apyrase; settings: apyrase 2 U/ml; colistin at less than 10 μg/ml
Method: Burkholderia multivorans AU0801 was grown in the presence of combinations of 0 and 2 U/ml of apyrase and approximately 0 to 20 μg/ml of colistin. After incubation, the numbers of viable cells were determined by counting the colony forming units (CFU) on the plate (data provided as CFU/ml).

[11] = test system: Burkholderia cepacia AU1114; test: Viable cell count (CFU) with colistin and apyrase; settings: apyrase 2 U/ml; colistin at less than 20 μg/ml
Method: Burkholderia cepacia AU1114 was grown in the presence of combinations of 0 and 2 U/ml of apyrase and approximately 0 to 20 μg/ml of colistin. After incubation, the numbers of viable cells were determined by counting the colony forming units (CFU) on the plate (data provided as CFU/ml).

[12] = test system: A. baumannii strain ATCC 19606; test: Viable cell count (CFU) with colistin and apyrase; settings: apyrase 1 and 2 U/ml; colistin 0.25 to 2 μg/ml; colistin alone at the same concentrations
Method: Approximately 10^6 CFU/ml of A. baumannii strain ATCC 19606 was grown on solid medium culture plates in the presence of combinations of 0, 1, and 2 U/ml of apyrase and 0, 0.25, 0.5, 1, and 2 μg/ml of colistin. After incubation, the numbers of viable cells were determined by counting the colony forming units (CFU) on the plate (data provided as CFU/ml). […] In these Examples, the colistin is colistin sulfate salt, catalog number C4461 from Sigma-Aldrich (St. Louis, Mo.) and the apyrase is catalog number M0393L from New England BioLabs Inc. (Ipswich, Mass.).

[13] = test system: Burkholderia dolosa AU0589; test: Viable cell count (CFU) with colistin and apyrase; settings: apyrase 2 U/ml; colistin at less than 20 μg/ml
Method: Burkholderia dolosa AU0589 was grown in the presence of combinations of 0 and 2 U/ml of apyrase and approximately 0 to 20 μg/ml of colistin. After incubation, the numbers of viable cells were determined by counting the colony forming units (CFU) on the plate (data provided as CFU/ml).

A. baumannii strain DMC1 = test: Viable cell count (CFU) with colistin and apyrase; settings: apyrase 1 and 2 U/ml; colistin 4 to 32 μg/ml; colistin alone at the same concentrations
Method: Approximately 10^6 CFU/ml of A. baumannii strain DMC1 was grown on solid medium culture plates in the presence of combinations of 0, 1, and 2 U/ml of apyrase and 0, 4, 8, 16, and 32 μg/ml of colistin. After incubation, the numbers of viable cells were determined by counting the colony forming units (CFU) on the plate (data provided as CFU/ml).

P. aeruginosa AU0584 = test: Viable cell count (CFU) with colistin and apyrase; settings: apyrase 2 U/ml; colistin at less than 10 μg/ml
Method: P. aeruginosa AU0584 was grown in the presence of combinations of 0 and 2 U/ml of apyrase and approximately 0 to 20 μg/ml of colistin. After incubation, the numbers of viable cells were determined by counting the colony forming units (CFU) on the plate (data provided as CFU/ml).

A. baumannii DMC1 [14] = test: Mouse wound model, viable bacteria at burn sites 24 hours after burn; settings: C57BL/6 mice, colistin 4 μg/ml
Method: In addition, experiments were performed to test the synergistic killing effects of colistin and apyrase in vivo. An established mouse wound model was used for this test.
Female pathogen-free C57BL/6 mice (Harlan, Indianapolis, Ind.), 12 weeks old, weighing ˜20-23 grams were used in all experiments. The skin over the lumbrosacral and back region was clipped using a 35-W model 5-55 E electrical clipper (Oyster-Golden A-S, Head no. 80, blade size 40) by using the method described by Ipaktchi et al. with slight modification. Two hundred microliters of a 0.9% saline suspension of A. baumannii DMC1 (1×10^6 cells/ml), which is a highly colistin resistant clinical strain, was used for wound infection experiments. Viable bacterial numbers were determined 24 hours after burn. The Student t-test was used for statistical analysis.
Experiments were carried out in four groups: (1) a control group (n=6), which contained neither apyrase nor colistin; (2) apyrase group (n=9), which contained apyrase (1 U/ml); (3) colistin group (n=9), which contained colistin (4 μg/ml); and (4) apyrase and colistin group (n=9), which was treated with the combination of apyrase (1 U/ml) and colistin (4 μg/ml). The treatment was applied immediately after inoculation. After 24 hours, the mice were given lethal IP injections of pentobarbital (150 mg/kg) and skin samples were collected using a scalpel and scissors.

[15] = test system: Burkholderia vietnamiensis AU10214; test: Viable cell count (CFU) with colistin and apyrase; settings: apyrase 2 U/ml; colistin at less than 20 μg/ml
Method: Burkholderia vietnamiensis AU10214 was grown in the presence of combinations of 0 and 2 U/ml of apyrase and approximately 0 to 20 μg/ml of colistin. After incubation, the numbers of viable cells were determined by counting the colony forming units (CFU) on the plate (data provided as CFU/ml).

MSCs = test: Osteogenic differentiation of MSCs after burn injury (alizarin red), burn mouse model; type: in vivo
Text: (§2) At the cellular level, research has shown that aberrant expression of BMPs in adipose-derived MSCs near the wound site stimulates osteogenic differentiation of multipotent cells. […] Alizarin red is used in to determine, quantitatively by colorimetry, the presence of calcific deposition by cells of an osteogenic lineage. As such, it is a marker of matrix mineralization, a crucial step towards the formation of calcified extracellular matrix associated with true bone. Thus, alizarin red staining indicates differentiation of cells to bone lineages.
(§3) Consequently, it is contemplated that decreasing inflammation at the burn site with apyrase—thus decreasing ATP concentrations, which leads to decreased MSC BMP-2 signaling and decreased osteogenic differentiation—alleviates heterotopic ossification at wound sites.

bacterial culture = test: Growth of a bacterial culture (optical density at 600 nm) with apyrase; type: cell-based; settings: presence vs absence of apyrase over 15 to 20 hours
BMP-2 signaling = BMP-2 signaling of MSCs after burn injury, burn mouse model; type: in vivo; settings: apyrase at the burn site
Text: as §2, §3

[16] = Killing efficiency of antibacterial agents with apyrase (summary of the examples); type: cell-based; settings: in some instances
Method: Embodiments of the technology relate to the surprising discovery that apyrase and antimicrobial agents act together synergistically. […] As such, the technology provides therapies in which antimicrobial agents are administered in lower doses (e.g., 0.01%, 0.1%, 1%, 5%, 10%, 20%, 50%, 75%, 90%, etc. of the standard recommended dosage) than in conventional technologies. Importantly, this reduces toxic side effects, if present, of antimicrobial agents in subjects and helps to prevent drug resistance of microbes. In addition, the technology provided herein comprising combined use of apyrase and antimicrobial agents provides the only treatment to kill some multiply-resistant strains of pathogens.

CCC(C)CCCC(=O)N[C@@H](CCN)C(=O)N[C@H](C(=O)N[C@@H](CCN)C(=O)N[C@H]1CCNC(=O)[C@H]([C@@H](C)O)NC(=O)[C@H](CCN)NC(=O)[C@H](CCN)NC(=O)[C@H](CC(C)C)NC(=O)[C@@H](CC(C)C)NC(=O)[C@H](CCN)NC1=O)[C@@H](C)O (stereo partly drawn) [Colistin, colistin] ({Heptanoyl(5-Me)}-[Dab]T[Dab][Dab][Dab][dL]L[Dab][Dab]T; lactam 4-C)
viable cells detected [1]: 10^4 to 10^5 CFU/ml
viable cells detected [2]: 10^4 to 10^5 CFU/ml
viable cells detected [3]: 10^5 to 10^6 CFU/ml
viable cells detected [4]: 10^4 to 10^5 CFU/ml
viable cells detected [5]: 10^5 to 10^6 CFU/ml
MIC (S. aureus ATCC 25923): > 32 µM
MIC (A. baumannii AC285): > 32 µM
MIC (P. aeruginosa AU7443): > 16 µM
MIC (P. aeruginosa PAO300): 2 µM
MIC (A. baumannii DMC1 [6]): > 32 µM
MIC (E. coli K-12): 2 µM
MIC (A. baumannii VBA9): > 32 µM
MIC (B. multivorans AU0801): > 16 µM
MIC (K. pneumonia AD): 16 µM
MIC (A. baumannii ATCC 19606): 4 µM
MIC (A. baumannii AC121): > 32 µM
MIC (P. aeruginosa ATCC 27853): 1 µM
MIC (P. aeruginosa AU1292): > 16 µM
viable cells detected [7]: 10^5 to 10^6 CFU/ml
viable cells detected [8]: 10^4 to 10^5 CFU/ml
viable cells detected [9]: 10^7 to 10^8 CFU/ml
A. baumannii detected on skin (A. baumannii ATCC DMC1): approximately 10^8 CFU/g of skin
viable cells detected [10]: 10^5 to 10^6 CFU/ml
viable cells detected [11]: 10^5 to 10^6 CFU/ml
viable cell count [12]: approximately 10^5 CFU/ml
viable cells detected [13]: 10^6 to 10^7 CFU/ml
viable cell count (A. baumannii strain DMC1): approximately 10^7 CFU/ml
viable cells detected (P. aeruginosa AU0584): 10^3 to 10^4 CFU/ml
viable bacteria number recovered from burn sites, compared with the control group (A. baumannii DMC1 [14]): no significant difference
viable cells detected [15]: 10^5 to 10^6 CFU/ml

apyrase
osteogenic differentiation of MSCs (alizarin red) (MSCs; after burn injury and apyrase treatment): significant decrease
osteogenic capacity of the MSCs (MSCs; apyrase at the burn site): decreased
growth of a bacterial culture (optical density at 600 nm) (bacterial culture): does not affect bacterial growth
A. baumannii detected on skin (A. baumannii ATCC DMC1): approximately 10^8 CFU/g of skin
level of BMP-2 signaling of the MSCs (BMP-2 signaling): decreased
increase of the killing efficiency of antibacterial agents [16]: 1000 times
